Like-named read-outs stand apart in the source and are kept apart here.
Key:
Assay type in all cases: cell-based
[1] = Hoechst 33342 nuclear staining (48 h read-out)
Method in brief: (§1)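 Adherent cells pre-spread 24 h before dosing, suspension cells dosed at seeding; compounds at 0.001 μM-10 μM final, 48 h at culture conditions. Hoechst 33342 (2-5 μg/ml) added for 30 min, then fluorescence microscopy scoring of apoptotic nuclear fraction and apoptosis-specific morphology, reported as scores A-D.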

tumor cells [2] = test: Hoechst 33342 nuclear staining (48 h read-out)
Method in brief: as §1

[3] = MTS proliferation assay (72 h read-out); conditions: MRC5 cells
Method in brief: (§2)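 Viability was read by MTS absorbance at 492 nm after 3 h with reagent. Before that, cells plated a day earlier at 1.5×10^3–10^4 per well had been incubated with test compound at final concentrations of 0.001–10 μM for 72 h; activity is given as category scores A–D.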

tumor cells [4] = test: MTS proliferation assay (72 h read-out)
Method in brief: as §2

[5] = Mitochondrial membrane potential, JC-1 (read-out 48 h); conditions: PBL, JC-1, 48 h
Method in brief: (§3)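 Tumor cells were treated with test compounds (adherent cells after 24 h of attachment, suspension cells immediately), medium holding up to 5% DMSO. After 48 h, JC-1 (2-5 μg/ml in added medium) was applied for 30 min. Fluorescence microscopy (FITC/TRITC filters) scored the fraction of cells with dissipated mitochondrial membrane potential as categories A-D.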

tumor cells [6] = test: as above; conditions: JC-1, 48 h
Method in brief: as §3

[7] = MRC5 cells, read-out: Hoechst 33342 nuclear staining EC50, MRC5
[8] = PBL, read-out: Hoechst 33342 nuclear staining EC50, PBL
[9] = HeLa cells, read-out: Hoechst 33342 nuclear staining EC50, HeLa
[10] = Jily cells, read-out: Hoechst 33342 nuclear staining EC50, Jily
[11] = Jurkat cells, read-out: Hoechst 33342 nuclear staining EC50, Jurkat
[12] = HT1080 cells, read-out: MTS proliferation assay IC50, HT1080
[13] = HeLa cells, read-out: MTS proliferation assay IC50, HeLa
[14] = Jily cells, read-out: MTS proliferation assay IC50, Jily
[15] = Jurkat cells, read-out: MTS proliferation assay IC50, Jurkat
[16] = HeLa cells, read-out: Mitochondrial membrane potential (read-out 48 h) HeLa
[17] = Jily cells, read-out: Mitochondrial membrane potential (read-out 48 h) Jily
[18] = Jurkat cells, read-out: Mitochondrial membrane potential (read-out 48 h) Jurkat
[19] = MCF7 cells, read-out: Mitochondrial membrane potential (read-out 48 h) MCF7

Structure (SMILES) | EC50 [1, 8] [nM] | EC50 (tumor cells [2]; [9]) [nM] | EC50 (tumor cells [2]; [10]) [nM] | EC50 (tumor cells [2]; [11]) [nM] | IC50 (tumor cells [4]; [12]) [nM] | IC50 (tumor cells [4]; [13]) [nM] | IC50 (tumor cells [4]; [14]) [nM] | IC50 (tumor cells [4]; [15]) [nM] | EC50 [5] [nM] | EC50 (tumor cells [6]; [16]) [nM] | EC50 (tumor cells [6]; [17]) [nM] | EC50 (tumor cells [6]; [18]) [nM] | EC50 (tumor cells [6]; [19]) [nM] | EC50 [1, 7] [nM] | IC50 [3] [nM]
COc1ccc2oc(C(=O)c3cccnc3N3CCCCC3C)cc2c1 (stereo not drawn) [Example 89] | > 1000 | 100 to 1000 | 100 to 1000 | 100 to 1000 | 100 to 1000 | 100 to 1000 | 10 to 100 | 10 to 100 | > 1000 | 100 to 1000 | 100 to 1000 | 100 to 1000 | 100 to 1000 | 100 to 1000 | 100 to 1000
COc1ccc2oc(C(=O)c3cccnc3-n3ccnc3)cc2c1 [Example 90] | > 1000 | > 1000 | > 1000 | > 1000 | > 1000 | > 1000 | > 1000 | > 1000 | > 1000 | > 1000 | > 1000 | > 1000 | > 1000 | > 1000 | > 1000
COc1ccc2oc(C(=O)c3cccnc3N3CCCCC3)cc2c1 [Example 91] | > 1000 | 100 to 1000 | 100 to 1000 | 100 to 1000 | < 10 | 10 to 100 | < 10 | < 10 | > 1000 | 10 to 100 | 10 to 100 | 10 to 100 | 10 to 100 | 100 to 1000 | < 10
COc1ccc2oc(C(=O)c3cccnc3N3CCCCC3)cc2c1 [Example 92] | > 1000 | > 1000 | > 1000 | > 1000 | > 1000 | > 1000 | > 1000 | > 1000 | > 1000 | 10 to 100 | 10 to 100 | 10 to 100 | 10 to 100 | > 1000 | > 1000
COc1ccc2oc(C(=O)c3cc(F)ccc3N3CCN(C)CC3)cc2c1 [Example 94] | > 1000 | > 1000 | > 1000 | 100 to 1000 | 100 to 1000 | 100 to 1000 | 100 to 1000 | 100 to 1000 | > 1000 | > 1000 | 100 to 1000 | 100 to 1000 | > 1000 | > 1000 | 100 to 1000
COc1ccc2oc(C(=O)c3cc(F)ccc3N3CCCC(C)C3)cc2c1 (stereo not drawn) [Example 99] | > 1000 | 100 to 1000 | 100 to 1000 | 100 to 1000 | 100 to 1000 | 100 to 1000 | 10 to 100 | 10 to 100 | > 1000 | 100 to 1000 | 100 to 1000 | 100 to 1000 | 100 to 1000 | > 1000 | 10 to 100
Nc1c(C(=O)c2cc(F)ccc2N2CCCCC2)oc2ccc(Cl)cc12 [Example 100] | > 1000 | 100 to 1000 | 100 to 1000 | 10 to 100 | 10 to 100 | 100 to 1000 | 10 to 100 | 10 to 100 | > 1000 | 100 to 1000 | 10 to 100 | 10 to 100 | 100 to 1000 | 100 to 1000 | 10 to 100
CN1CCN(c2ccc(F)cc2C(=O)c2oc3ccc(Cl)cc3c2N)CC1 [Example 102] | > 1000 | > 1000 | > 1000 | > 1000 | > 1000 | > 1000 | > 1000 | 100 to 1000 | > 1000 | > 1000 | > 1000 | > 1000 | > 1000 | > 1000 | > 1000
Nc1c(C(=O)c2cc(F)ccc2N2CC=CCC2)oc2ccc(Cl)cc12 [Example 103] | > 1000 | 10 to 100 | 10 to 100 | 10 to 100 | 10 to 100 | 10 to 100 | 10 to 100 | 10 to 100 | > 1000 | 10 to 100 | 10 to 100 | 10 to 100 | 10 to 100 | 10 to 100 | 10 to 100
CC1CCCN(c2ccc(F)cc2C(=O)c2oc3ccc(Cl)cc3c2N)C1 (stereo not drawn) [Example 104] | > 1000 | 100 to 1000 | 100 to 1000 | 100 to 1000 | 100 to 1000 | 100 to 1000 | 100 to 1000 | 100 to 1000 | > 1000 | 100 to 1000 | 100 to 1000 | 100 to 1000 | 100 to 1000 | 100 to 1000 | 100 to 1000
O=C(c1cc2cc(OCc3ccccc3)ccc2o1)c1cc(F)ccc1N1CCOCC1 [Example 106] | > 1000 | > 1000 | > 1000 | > 1000 | > 1000 | > 1000 | > 1000 | > 1000 | > 1000 | > 1000 | > 1000 | > 1000 | > 1000 | > 1000 | > 1000

Now from value to molecule, other results behind:

EC50 [1, 8] [nM] | EC50 (tumor cells [2]; [9]) [nM] | EC50 (tumor cells [2]; [10]) [nM] | EC50 (tumor cells [2]; [11]) [nM] | IC50 (tumor cells [4]; [12]) [nM] | IC50 (tumor cells [4]; [13]) [nM] | IC50 (tumor cells [4]; [14]) [nM] | IC50 (tumor cells [4]; [15]) [nM] | EC50 [5] [nM] | EC50 (tumor cells [6]; [16]) [nM] | EC50 (tumor cells [6]; [17]) [nM] | EC50 (tumor cells [6]; [18]) [nM] | EC50 (tumor cells [6]; [19]) [nM] | Structure (SMILES) | EC50 [1, 7] [nM] | IC50 [3] [nM]
> 1000 | 10 to 100 | 10 to 100 | 10 to 100 | 10 to 100 | 10 to 100 | 10 to 100 | 100 to 1000 | > 1000 | 10 to 100 | 100 to 1000 | 10 to 100 | 100 to 1000 | Nc1c(C(=O)c2cc(F)ccc2N2CCOCC2)oc2ccc(Cl)cc12 [Example 93] | 10 to 100 | 10 to 100
> 1000 | > 1000 | > 1000 | > 1000 | 100 to 1000 | > 1000 | 100 to 1000 | 100 to 1000 | > 1000 | > 1000 | > 1000 | > 1000 | > 1000 | COc1ccc2oc(C(=O)c3cc(F)ccc3N3CCCCC3C)cc2c1 (stereo not drawn) [Example 97] | > 1000 | 100 to 1000
> 1000 | 100 to 1000 | 100 to 1000 | 10 to 100 | 10 to 100 | 100 to 1000 | 100 to 1000 | 10 to 100 | > 1000 | 100 to 1000 | 10 to 100 | 10 to 100 | 100 to 1000 | Nc1c(C(=O)c2cc(F)ccc2N2CCCCC2)oc2ccc(Cl)cc12 [Example 101] | 100 to 1000 | 100 to 1000
> 1000 | > 1000 | > 1000 | > 1000 | > 1000 | > 1000 | > 1000 | > 1000 | > 1000 | > 1000 | > 1000 | > 1000 | > 1000 | COc1ccc2oc(C(=O)c3cc(F)ccc3-n3ccnc3)cc2c1 [Example 105] | > 1000 | > 1000
> 1000 | 100 to 1000 | 100 to 1000 | 100 to 1000 | 10 to 100 | 10 to 100 | 10 to 100 | 10 to 100 | > 1000 | 100 to 1000 | 10 to 100 | 10 to 100 | 100 to 1000 | O=C(c1cc2cc(O)ccc2o1)c1cc(F)ccc1N1CCOCC1 [Example 107] | 100 to 1000 | 10 to 100

Reference: patent US8486996B2, “Aroylfuranes and aroylthiophenes” (Basilea Pharmaceutica AG, priority 2006, dated 2013)
